How the values were obtained:
[1] = Cytotoxicity test (Cell Counting Kit-8); format: cell-based; conditions: human, Firefly luciferase HCV replicon cells (3-1); Cell Counting Kit-8, absorbance 450 nm, after 3 days culture with compound
Procedure: (§1) Firefly luciferase HCV replicon cells (3-1) were suspended in Dulbecco's MEM (Gibco Cat. No. 10569-010) containing 5% fetal calf serum (Hyclone Cat. No. SH30071.03) and inoculated into a 96-well plate at 5000 cells/well followed by culturing overnight at 5% CO2 and 37° C. After about 20 hours, 10 μl of a diluted compound was added to each well followed by additional culturing for 3 days. Two series of the assay plates were prepared, and assay was conducted using white plates for one series while using clear plates for the other series. Following completion of culturing, the white plates were used with the Steady-Glo Luciferase Assay System (Promega Cat. No. E2520). More specifically, 100 μl of reagent was placed in each well and after mixing 3 to 4 times with a pipette and allowing to stand for 5 minutes, luminescence was measured with the 1450 MicroBeta TRILUX (WALLAC). The value in the absence of cell addition was used to indicate the background value, and that value was subtracted from all values to calculate the IC50 value (concentration resulting in 50% inhibition) of the drug based on 0% inhibition for the value obtained in the absence of drug addition.
(§2) The Cell Counting Kit-8 (Dojindo Cat. No. CK04) was used for measurement of cytotoxicity. More specifically, 10 μl of the Cell Counting Kit-8 was added to the clear plates followed by incubating at 37° C. for 30 to 60 minutes. Absorbance at a wavelength of 450 nm and control wavelength of 630 nm was measured with a 96-well plate reader. The value obtained in the absence of cell addition was used as a background value, and that value was subtracted from all values to calculate the CC50 value (concentration resulting in 50% cell inhibition) of the drug based on 0% inhibition for the value obtained in the absence of drug addition.

[2] = tested on: Firefly luciferase HCV replicon cells (3-1); test: Replicon assay (firefly luciferase HCV replicon); format: cell-based; conditions: Hepatitis C virus, 72 h; luciferase luminescence after 3 days culture with compound, Huh7-derived replicon cells
Procedure: A construct was prepared in which luciferase gene derived from firefly was inserted as a reporter gene in HCV-RNA to assay the number of copies of HCV-RNA. The luciferase gene was inserted in a form that fuses with the neomycin resistance gene directly below IRES (Internal Ribosome Entry Site) of HCV gene in accordance with the method of Krieger, et al. (J. Virol. 75: 4614). After synthesizing the RNA in vitro, it was introduced into Huh7 cells by electroporation followed by isolation as G418 resistant clone.
as §1

[3] = tested on: Firefly luciferase HCV replicon cells (3-1); test: Cytotoxicity test (Cell Counting Kit-8); format: cell-based; conditions: Cell Counting Kit-8, absorbance 450 nm, after 3 days culture with compound
Procedure: as §1, §2

immune reactions = conditions: known from WO98/56755; cited from earlier work
Candida albicans = conditions: known from WO98/56755; cited from earlier work
Cryptococcus neoformans = conditions: known from WO98/56755; cited from earlier work

In the case of `CCCCCCCC(=O)CCCCCC/C=C/[C@H](C(=O)N[C@@H](Cc1ccc(O)cc1)C(=O)O)[C@@](O)(CC(=O)O)C(=O)O` [Compound 9], the CC50 at 3 days [1] is reported as > 5000 nM and the IC50 [2] is reported as 20 nM.

For `CCCCCCCC(=O)CCCCCC/C=C/[C@H](C(=O)N[C@@H](Cc1ccc(OC)cc1)C(=O)O)[C@@](O)(CC(=O)O)C(=O)O` [Compound 26], the CC50 at 3 days [1] was > 1000 nM and the IC50 [2] was 3 nM.

With `CCCCCCCC(=O)CCCCCC/C=C/[C@H](C(=O)N[C@@H](Cc1ccc(OCCC(C)C)cc1)C(=O)O)[C@@](O)(CC(=O)O)C(=O)O` [Compound 7] the CC50 at 3 days [1] was > 5000 nM and the IC50 [2] was 2 nM.

For `C=CCOc1ccc(C[C@H](NC(=O)[C@@H](/C=C/CCCCCCC(=O)CCCCCCC)[C@@](O)(CC(=O)O)C(=O)O)C(=O)O)cc1` [Compound 25], the CC50 at 3 days [1] was > 1000 nM and the IC50 [2] was 1 nM.

In the case of `CC#CCOc1ccc(C[C@H](NC(=O)[C@@H](/C=C/CCCCCCC(=O)CCCCCCC)[C@@](O)(CC(=O)O)C(=O)O)C(=O)O)cc1` [Compound 21], the CC50 [3] is reported as > 5000 nM.

In the case of `CCCCCCCC(=O)CCCCCC/C=C/[C@H](C(=O)N[C@@H](Cc1ccc(OCC=C(C)C)cc1)C(=O)O)[C@@](O)(CC(=O)O)C(=O)O` [Compound 1], the “effects that inhibit immune reactions” value (immune reactions) is listed as “inhibit immune reactions”, the CC50 at 3 days [1] is listed as > 5000 nM and the “antimicrobial activity against Candida albicans” value (Candida albicans) is listed as “antimicrobial activity”. For the same compound, the IC50 [2] was 2 nM and the “antimicrobial activity against Cryptococcus neoformans” value (Cryptococcus neoformans) was “antimicrobial activity”.

With `CCCCCCCC(CCCCCC/C=C/[C@H](C(=O)N[C@@H](Cc1ccc(OCC=C(C)C)cc1)C(=O)O)[C@@](O)(CC(=O)O)C(=O)O)=NOC` [Compound 15] the CC50 at 3 days [1] was > 50000 nM and the IC50 [2] was 20 nM.

With `CCCCCCCC(=O)CCCCCC/C=C/[C@H](C(=O)N[C@@H](Cc1ccc(OCCC)cc1)C(=O)O)[C@@](O)(CC(=O)O)C(=O)O` [Compound 24] the CC50 at 3 days [1] was > 1000 nM and the IC50 [2] was 2 nM.

With `CCCCCCCC(=O)CCCCCC/C=C/[C@H](C(=O)N[C@@H](Cc1ccc(OCC=C(C)C)cc1)C(=O)OC)[C@@](O)(CC(=O)OC)C(=O)O` [Compound 3] the CC50 at 3 days [1] was > 1000 nM and the IC50 [2] was 76 nM.

With `CCCCCCCC(=O)CCCCCC/C=C/[C@H](C(=O)N[C@@H](Cc1ccc(OCC=C(C)C)cc1)C(=O)O)[C@@](O)(CC(=O)OC)C(=O)O` [Compound 2] the CC50 at 3 days [1] was > 1000 nM and the IC50 [2] was 128 nM.

For `CCCCCCCCCCCCCC/C=C/[C@H](C(=O)N[C@@H](Cc1ccc(OCC=C(C)C)cc1)C(=O)O)[C@@](O)(CC(=O)O)C(=O)O` (mixture of isomers) [Compound 13], the CC50 at 3 days [1] was > 50000 nM and the IC50 [2] was 100 nM.

In the case of `CCCCCCCC(O)CCCCCC/C=C/[C@H](C(=O)N[C@@H](Cc1ccc(OCC=C(C)C)cc1)C(=O)O)[C@@](O)(CC(=O)O)C(=O)O` (stereo partly shown) [Compound 8], the CC50 at 3 days [1] is reported as > 5000 nM and the IC50 [2] is reported as 5 nM.

For `CCCCCCCC(=O)CCCCCC/C=C/[C@H](C(=O)N[C@@H](Cc1ccc(OC)c(OC)c1)C(=O)O)[C@@](O)(CC(=O)O)C(=O)O` [Compound 22], the CC50 [3] was > 1000 nM.

With `CCCCCCCC(=O)CCCCCC/C=C/[C@H](C(=O)N[C@@H](Cc1ccc(OCC=C(C)C)cc1)C(N)=O)[C@@](O)(CC(N)=O)C(N)=O` [Compound 11] the CC50 at 3 days [1] was > 5000 nM and the IC50 [2] was 262 nM.

For `CCCCCCCC(=O)CCCCCCCC[C@H](C(=O)N[C@@H](Cc1ccc(OCCC(C)C)cc1)C(=O)O)[C@@](O)(CC(=O)O)C(=O)O` [Compound 12], the CC50 at 3 days [1] was > 5000 nM and the IC50 [2] was 72 nM.

For `CCCCCCCC(=O)CCCCCC/C=C/[C@H](C(=O)N[C@@H](Cc1c[nH]c2ccccc12)C(=O)O)[C@@](O)(CC(=O)O)C(=O)O` [Compound 5], the CC50 at 3 days [1] was > 1000 nM and the IC50 [2] was 82 nM.

In the case of `CCCCCCC(O)C(=O)CCCCCC/C=C/[C@H](C(=O)N[C@@H](Cc1ccc(OCC=C(C)C)cc1)C(=O)O)[C@@](O)(CC(=O)O)C(=O)O` (stereo partly shown) [Compound 6], the CC50 at 3 days [1] is reported as > 1000 nM and the IC50 [2] is reported as 7 nM.

In the case of `CCCCCCC(O)C(=O)CCCCCC/C=C/[C@H](C(=O)N[C@@H](Cc1ccc(O)cc1)C(=O)O)[C@@](O)(CC(=O)O)C(=O)O` (stereo partly shown) [Compound 4], the CC50 at 3 days [1] is reported as > 1000 nM and the IC50 [2] is reported as 103 nM.

With `CCCCCCCC(=O)CCCCCCCC[C@H](C(=O)N[C@@H](Cc1ccc(O)cc1)C(=O)O)[C@@](O)(CC(=O)O)C(=O)O` [Compound 10] the CC50 at 3 days [1] was > 50000 nM and the IC50 [2] was 245 nM.

With `CCCCCCCC(=O)CCCCCC/C=C/[C@H](C(=O)N[C@@H](Cc1ccc(OCCCC)cc1)C(=O)O)[C@@](O)(CC(=O)O)C(=O)O` [Compound 23] the CC50 at 3 days [1] was > 1000 nM and the IC50 [2] was 1 nM.

Compound `CCCCCCC/C(CCCCCC/C=C/[C@H](C(=O)N[C@@H](Cc1ccc(OCC=C(C)C)cc1)C(=O)O)[C@@](O)(CC(=O)O)C(=O)O)=N/OCCN` [Compound 14] has a CC50 at 3 days [1] of 22000 nM and an IC50 [2] of 20 nM.

Reference: patent US7776918B2, “Remedy for viral disease” (Chugai Seiyaku Kabushiki Kaisha, priority 2003, dated 2010)
